The text below walks through data of ChEMBL document CHEMBL1131950, “Reversal of P-glycoprotein mediated multidrug resistance by novel anthranilamide derivatives” (Bioorg Med Chem Lett, 1999).

SMILES strings stand for the structures. pEC50, pIC50: −log10 of the molar value.

The first assay deals with EMT6. As to the kind of experiment: Reversal effect on the accumulation of [3H]- daunorubicin in mouse mammary carcinoma cell line EMT6/AR 1.0. Type of assay: functional, cell-based.
Conditions: not given
The pIC50 is the negative decadic logarithm of the IC50, by convention in mol/L. With `COc1cc2c(cc1OC)CN(CCc1ccc(NC(=O)c3cc(OC)c(OC)cc3NC(=O)c3cnc4ccccc4c3)cc1)CC2` [TARIQUIDAR], the pIC50 was 7.42.

Staying with this assay, now noted: read-out: IC50.
As to `COc1ccc(CCn2c(-c3ccc(N(C)C)cc3)nc3ccccc3c2=O)cc1OC`, the pIC50 was 5.30.
The same measure, in the same setting: the same measure for `COc1cc2c(cc1OC)CN(CCNC(=O)c1ccccc1NC(=O)c1ccc(N(C)C)cc1)CC2`: 5.62; for `COc1cc2c(cc1OC)CN(CCc1ccc(NC(=O)c3ccccc3Oc3ccccc3)cc1)CC2`: 5.57; for `COc1cc2c(cc1OC)CN(CCc1ccc(NC(=O)c3ccccc3NC(=O)c3cccnc3)cc1)CC2`: 6.06.
With `COc1cc2c(cc1OC)CN(CCc1ccc(NC(=O)c3ccccc3NC(=O)c3ccc4ccccc4n3)cc1)CC2`, the pIC50 was 6.10.
On the same count and under the same terms, the same measure for `COc1cc2c(cc1OC)CN(CCc1ccc(NC(=O)c3ccccc3NC(=O)c3ccccn3)cc1)CC2`: 6.17; for `COc1cc2c(cc1OC)CN(CCc1ccc(NC(=O)c3cccc(/C=c4\[nH]c(=O)/c(=C/c5ccccc5)n(C)c4=O)c3)cc1)CC2`: 6.66.
On the same count and under the same terms, to `COc1cc2c(cc1OC)CN(CCc1ccc(NC(=O)c3ccccc3NC(=O)c3ccco3)cc1)CC2` belongs 5.48.
On the same count and under the same terms, the same measure for `COc1cc2c(cc1OC)CN(CCc1ccc(NC(=O)c3ccccc3NC(=O)c3cnc(C)cn3)cc1)CC2`: 7.17.
In the case of `COc1cc2c(cc1OC)CN(CCc1ccc(NC(=O)c3ccc([N+](=O)[O-])cc3NC(=O)c3cnc4ccccc4c3)cc1)CC2`, the pIC50 is 7.35.
On the same count and under the same terms, to `COc1cc2c(cc1OC)CN(CCc1ccc(NC(=O)c3ccccc3NC(=O)c3cc4ccccc4cn3)cc1)CC2` belongs 5.31; to `COc1cc2c(cc1OC)CN(CCNC(=O)c1ccccc1NC(=O)c1ccc(C3CCCCC3)cc1)CC2`, 5.80; to `COc1cc2c(cc1OC)CN(CCc1ccc(NC(=O)c3ccccc3NC(=O)c3ccsc3)cc1)CC2`, 6.14.
Regarding `COc1cc2c(cc1OC)CN(CCc1ccc(NC(=O)c3ccccc3NC(=O)c3cnccn3)cc1)CC2`, the pIC50 is 6.69.
Same read-out and setting: the same measure for `COc1cc2c(cc1OC)CN(CCc1ccc(NC(=O)c3ccccc3-c3ccccc3)cc1)CC2`: 5.77; for `COc1cc2c(cc1OC)CN(CCc1ccc(NC(=O)c3ccccc3C(=O)c3ccccc3)cc1)CC2`: 5.96; for `COc1cc2c(cc1OC)CN(CCc1ccc(NC(=O)c3cc(Cl)ccc3NC(=O)c3cnc4ccccc4c3)cc1)CC2`: 6.83.
Still for that read-out and setting: to `COc1cc2c(cc1OC)CN(CCc1ccc(NC(=O)c3cc(F)ccc3NC(=O)c3cnc4ccccc4c3)cc1)CC2` belongs 7.22.
On to `COc1cc2c(cc1OC)CN(CCc1ccc(NC(=O)c3ccccc3NC(=O)c3ccc(C)nc3)cc1)CC2`, for which the pIC50 was 7.17.
The same measure, in the same setting: to `COc1cc2c(cc1OC)CN(CCNC(=O)c1ccccc1NC(=O)c1ccccc1)CC2` belongs 5.17; to `COc1cc2c(cc1OC)CN(CCc1ccc(NC(=O)c3cc(C)ccc3NC(=O)c3cnc4ccccc4c3)cc1)CC2`, 6.66.
On the same count and under the same terms, to `COc1cc2c(cc1OC)CN(CCc1ccc(NC(=O)c3ccccc3NC(=O)c3ccccc3)cc1)CC2` belongs 6.60.
Take `COc1cc2c(cc1OC)CN(CCc1ccc(NC(=O)c3cc(N(C)C)ccc3NC(=O)c3cnc4ccccc4c3)cc1)CC2`: the pIC50 is 6.53.
As for `COc1cc2c(cc1OC)CN(CCc1ccc(NC(=O)c3ccc(F)cc3NC(=O)c3cnc4ccccc4c3)cc1)CC2`, the pIC50 was 7.42.
For `COc1cc2c(cc1OC)CN(CCc1ccc(NC(=O)c3ccccc3NC(=O)c3cnc4ccccc4n3)cc1)CC2`, the pIC50 is 7.04.
The same measure, in the same setting: the same measure for `COc1cc2c(cc1OC)CN(CCc1ccc(NC(=O)c3ccc(Cl)cc3NC(=O)c3cnc4ccccc4c3)cc1)CC2`: 6.85; for `COc1cc2c(cc1OC)CN(CCc1ccc(NC(=O)c3ccccc3NC(=O)c3ccoc3)cc1)CC2`: 6.04.
As for `COc1cc2c(cc1OC)CN(CCc1ccc(NC(=O)c3ccccc3Sc3ccccc3)cc1)CC2`, the pIC50 is 5.64.
Same read-out and setting: to `COc1cc2c(cc1OC)CN(CCc1ccc(NC(=O)c3ccccc3NC(=O)c3ccc(C(C)C)cc3)cc1)CC2` belongs 6.07; to `COc1cc2c(cc1OC)CN(CCNC(=O)c1ccccc1NC(=O)c1ccc(C(C)C)cc1)CC2`, 5.96.
As to `COc1cc2c(cc1OC)CN(CCc1ccc(NC(=O)c3ccccc3NC(=O)c3cnc4ccccc4c3)cc1)CC2`, the pIC50 is 7.06.

The next assay deals with MDR. As to the kind of experiment: Potency tested against multidrug resistance (MDR) cell lines expressing P-gp (P-glycoprotein). The format is functional, cell-based.
Conditions: not given
As usually defined, the pEC50 is −log10 of the EC50, conventionally taken in molar units. A low value points to a large EC50. As for `COc1cc2c(cc1OC)CN(CCc1ccc(NC(=O)c3cc(F)ccc3NC(=O)c3cnc4ccccc4c3)cc1)CC2`, the negative logarithm of the EC50 (pEC50) was 7.57.
`COc1cc2c(cc1OC)CN(CCc1ccc(NC(=O)c3ccccc3NC(=O)c3cnc4ccccc4n3)cc1)CC2` had a pEC50 of 7.72. The pEC50 values of the last two compounds are within 0.2 log units of each other.
Regarding `COc1cc2c(cc1OC)CN(CCc1ccc(NC(=O)c3ccccc3NC(=O)c3cnc4ccccc4c3)cc1)CC2`, the negative-log EC50 (pEC50) is 7.52. Against the preceding compound, the pEC50 is 0.20 log units lower.
Still for that read-out and setting: the same measure for `COc1cc2c(cc1OC)CN(CCc1ccc(NC(=O)c3cc(OC)c(OC)cc3NC(=O)c3cnc4ccccc4c3)cc1)CC2` [TARIQUIDAR]: 7.79.
